Assay results taken from patent US10377791B2, “Therapeutically active estratrienthiazole derivatives as inhibitors of 17 B-hydroxysteroid dehydrogenase, type 1” (FORENDO PHARMA LTD, priority 2013, dated 2019).

Key:
[1] = human, tissue homogenate, 1 h
Protocol: The in vitro metabolic stability of the compounds of the invention was determined for exemplified compounds using human liver microsome and homogenate incubations. The incubation time points used with or without appropriate cofactors were 0 min and 60 min. Samples were collected at both time points and substrates were detected using LC/PDA/TOF-MS.

[2] = target: T1, recombinant human 17β-HSD2 (Homo sapiens, UniProt P37059); experiment: Inhibition of recombinant human 17β-HSD2; format: biochemical; settings: inhibitor at 1 μM, 50 nM estradiol, 1 mM NADH, 30 min at RT; for inhibition at 1 µM: read-out: 17β-HSD2 Inhibition % at 1 μM
T1 construct: made in house; host or cells: Sd9 (Sf9) insect cells, baculovirus (Bac to Bac Expression System)
T1 sequence (P37059 1-387): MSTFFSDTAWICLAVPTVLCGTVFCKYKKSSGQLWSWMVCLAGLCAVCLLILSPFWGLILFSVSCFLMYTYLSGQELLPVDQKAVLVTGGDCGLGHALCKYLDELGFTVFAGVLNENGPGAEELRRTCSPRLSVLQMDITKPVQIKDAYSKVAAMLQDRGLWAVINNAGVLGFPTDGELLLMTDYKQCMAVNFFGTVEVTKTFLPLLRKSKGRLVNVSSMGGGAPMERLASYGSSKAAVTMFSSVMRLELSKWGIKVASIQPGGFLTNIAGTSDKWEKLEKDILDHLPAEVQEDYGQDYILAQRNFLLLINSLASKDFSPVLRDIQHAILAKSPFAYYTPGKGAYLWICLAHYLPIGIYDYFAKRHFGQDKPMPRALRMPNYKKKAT
How it was run: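 Membrane extract of baculovirus-expressed enzyme in Sf9 cells (4 μg/ml) incubated in 20 mM KH2PO4 pH 8.5 with 50 nM estradiol (³H-tracer) and 1 mM NADH, 30 min at RT, 1% DMSO, inhibitor at 1 μM or 0.1 μM. TCA-stopped; estradiol-to-estrone conversion by radio-HPLC; % inhibition = 100 − % conversion.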

[3] = target: T2, recombinant human 17β-HSD1 (Homo sapiens, UniProt P14061); experiment: Inhibition of recombinant human 17β-HSD1; format: biochemical; settings: inhibitor at 1 μM; 30 nM estrone, 1 mM NADPH, 30 min at RT; read-out: 17β-HDS1 Inhibition % at 1 μM
T2 construct: made in house; host or cells: Sd9 (Sf9) insect cells, baculovirus (Bac to Bac Expression System)
T2 sequence (P14061 1-328): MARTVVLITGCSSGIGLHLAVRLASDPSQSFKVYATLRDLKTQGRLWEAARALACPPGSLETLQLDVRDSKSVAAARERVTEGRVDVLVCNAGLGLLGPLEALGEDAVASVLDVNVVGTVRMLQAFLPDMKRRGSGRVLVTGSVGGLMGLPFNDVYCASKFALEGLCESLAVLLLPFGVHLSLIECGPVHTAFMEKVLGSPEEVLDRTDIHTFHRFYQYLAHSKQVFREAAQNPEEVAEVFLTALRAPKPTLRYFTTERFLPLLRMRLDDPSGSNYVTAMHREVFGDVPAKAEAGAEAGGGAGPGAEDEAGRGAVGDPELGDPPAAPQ
How it was run: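 Microsomal enzyme from baculovirus-infected insect cells (1 μg/ml) incubated 30 min at RT in 20 mM KH2PO4 pH 7.4 with 30 nM ³H-estrone and 1 mM NADPH, inhibitor at 1 μM or 0.1 μM, 1% DMSO. TCA-stopped; estrone/estradiol separated by radio-HPLC; % inhibition = 100 − % conversion.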

| Structure (SMILES) | In vitro metabolic stability, % remaining after 60 min [1] [%] | inhibition at 1 µM [2] [%] | inhibition at 1 µM [3] [%] | 17β-HSD2 Inhibition % at 1 μM [2] [%] |
| --- | --- | --- | --- | --- |
| Cc1cnc(NC(=O)CC[C@@H]2CC(=O)[C@@]3(C)CCC4c5ccc(OCc6ccccc6)cc5CCC4C23)s1 (stereo partly drawn) [Compound 30, 3-((13S,15R)-3-Benzyloxy-13-methyl-17-oxo-7,8,9,11,12,13,14,15,16,17-decahydro-6H-cyclopenta[a]phenanthren-15-yl)-N-(5-methylthiazol-2-yl)propanamide] | 74 |  |  |  |
| Cc1cnc(NC(=O)CC[C@@H]2CC(=O)[C@@]3(C)CCC4c5ccc(OC(=O)C(C)(C)C)cc5CCC4C23)s1 (stereo partly drawn) [Compound 3, 2,2-Dimethyl-propionic acid (13S,15R)-13-methyl-15-[2-(5-methylthiazol-2-ylcarbamoyl)-ethyl]-17-oxo-7,8,9,11,12,13,14,15,16,17-decahydro-6H-cyclopenta[a]phenanthren-3-yl ester] | 30 |  |  |  |
| Cc1cnc(NC(=O)CC[C@@H]2C(Br)C(=O)[C@@]3(C)CCC4c5cc(Br)c(O)c(Br)c5CCC4C23)s1 (stereo partly drawn) [Compound 59, N-(5-methylthiazol-2-yl)-3-((13S,15S)-2,4,16-tribromo-3-hydroxy-13-methyl-17-oxo-7,8,9,11,12,13,14,15,16,17-decahydro-6H-cyclopenta[a]phenanthren-15-yl)propanamide] |  | 2 | 79 |  |
| Cc1cnc(NC(=O)CC[C@@H]2CC(=O)[C@@]3(C)CCC4c5cc(CN6CCOCC6)c(O)cc5CCC4C23)s1 (stereo partly drawn) [Compound 42, 3-((13S,15R)-3-hydroxy-13-methyl-2-(morpholinomethyl)-17-oxo-7,8,9,11,12,13,14,15,16,17-decahydro-6H-cyclopenta[a]phenanthren-15-yl)-N-(5-methylthiazol-2-yl)propanamide] |  | 0 | 90 |  |
| Cc1cnc(NC(=O)CC[C@@H]2CC(=O)[C@@]3(C)CCC4c5ccc(O)c(F)c5CCC4C23)s1 (stereo partly drawn) [Compound 66, 3-((13S,15R)-4-fluoro-3-hydroxy-13-methyl-17-oxo-7,8,9,11,12,13,14,15,16,17-decahydro-6H-cyclopenta[a]phenanthren-15-yl)-N-(5-methylthiazol-2-yl)propanamide] |  | 8 | 98 |  |
| Cc1cnc(NC(=O)CC[C@@H]2CC(=O)[C@@]3(C)CCC4c5cc(I)c(O)c(I)c5CCC4C23)s1 (stereo partly drawn) [Compound 53, 3-((13S,15R)-3-hydroxy-2,4-diiodo-13-methyl-17-oxo-7,8,9,11,12,13,14,15,16,17-decahydro-6H-cyclopenta[a]phenanthren-15-yl)-N-(5-methylthiazol-2-yl)propanamide] |  | 5 | 94 |  |
| Cc1cnc(NC(=O)CC[C@@H]2CC(=O)[C@@]3(C)CCC4c5ccc(OP(=O)(O)O)cc5CCC4C23)s1 (stereo partly drawn) [Compound 7, Phosphoric acid mono-{(13S,15R)-13-methyl-15-[2-(5-methylthiazol-2-ylcarbamoyl)-ethyl]-17-oxo-7,8,9,11,12,13,14,15,16,17-decahydro-6H-cyclopenta[a]phenanthren-3-yl} ester] |  |  | 80 | 3 |
| Cc1cnc(NC(=O)CC[C@@H]2CC(=O)[C@@]3(C)CCC4c5cc(Cl)c(O)cc5CCC4C23)s1 (stereo partly drawn) [Compound 64, 3-((13S,15R)-2-chloro-3-hydroxy-13-methyl-17-oxo-7,8,9,11,12,13,14,15,16,17-decahydro-6H-cyclopenta[a]phenanthren-15-yl)-N-(5-methylthiazol-2-yl)propanamide] |  | 5 | 98 |  |
| Cc1cnc(NC(=O)CC[C@@H]2CC(=O)[C@@]3(C)CCC4c5cc(F)ccc5CCC4C23)s1 (stereo partly drawn) [Compound 86, 3-((13S,15R)-2-fluoro-13-methyl-17-oxo-7,8,9,11,12,13,14,15,16,17-decahydro-6H-cyclopenta[a]phenanthren-15-yl)-N-(5-methylthiazol-2-yl)propanamide] |  | 0 | 92 |  |
